According to patent US12157723B2, “Compounds” (CYBIN UK LTD, priority 2019, dated 2024):
Where two headings read alike, the source gives them in different places.

Assays:
[1] = Solubility of API in water (vessel cleaning note); assay type: physicochemical
[2] = humans, 0.05 mg/kg to 0.4 mg/kg, bolus injections or infusions; cited from earlier work
[3] = without coadministration of a monoamine oxidase inhibitor; cited from earlier work
[4] = cited from earlier work; for participants with psychiatric diagnoses whose symptoms improved following use: uncontrolled setting, self-report

Q: Which solubility in water [1] does the source give for `CN(C)CCc1c[nH]c2ccccc12.O=C(O)/C=C/C(=O)O` [API, N,N-DMT fumarate] here?
A: API highly soluble

Q: For `CN(C)CCc1c[nH]c2ccccc12` [DMT (SPL026), N,N-dimethyltryptamine], which tolerability [2] is on record?
A: well-tolerated

Q: For `COc1ccc2[nH]cc(CCN(C)C)c2c1` [Mixture 5-MeO-DMT, 5-methoxy-N,N-dimethyltryptamine], which oral bioavailability [3] is on record?
A: not orally bioavailable

Q: What about the “individuals reporting improvements in their conditions following use” value ([4]; alcoholism or hazardous drinking, n=75 out of 113) of the same compound?
A: 66%

Q: What about the “participants with psychiatric diagnoses whose symptoms improved following use” value (from here on “participants”) ([4]; anxiety) of the same compound?
A: 69%

Q: And the “participants” value ([4]; depression)?
A: 77%

Q: What about the “participants” value ([4]; post-traumatic stress disorder) of the same compound?
A: 79%
